Test results as given in US12616704B2, “Cannabichromene formulation for pain management” (Zyus Life Sciences Inc., priority 2020, dated 2026).

Assays:
Format in all cases: in vivo, C57BL/6J mice
[1] = tested on: Oxaliplatin-induced cool allodynia; test: Acetone Cooling Test (ACT) in oxaliplatin-induced polyneuropathy (OIPN) model; conditions: CBC 20 mg/kg p.o., Duloxetine 25 mg/kg i.p.
Experimental: Model Induction—Mouse Oxaliplatin-induced polyneuropathy (OIPN) model was induced over a three-week period. The day of first Oxaliplatin (OXP) injection is referred to as day 0 (DO). OXP was administered as six separate intraperitoneal injections at 4.5-mg/kg (10 ml/kg, i.p.) to Groups 2, 3, and 4 on DO, D4, D8, D12, D16, and D20. The cumulative OXP dose was thus 27 mg/kg. The in-life procedures, such as observations, tests, and/or measurements were performed by Charles River Discovery Services with blinded methods. The mice were distributed into 4 groups (n=8 for Vehicle Control; n=10 OXP Control; n=20 CBC; n=15 Duloxetine).
Treatments—Following exposure to OXP for 20 days, Groups 3 and 4 were treated with CBC (20 mg/kg, p.o.) and Duloxetine (25 mg/kg, i.p.), respectively, for 10 consecutive days. In a similar regimen Groups 1 and 2 (Vehicle Control and OXP-Vehicle Control, respectively) received a corresponding volume of 5% glucose solution at an administration volume of 10 mL/kg.
Acetone Cooling Test (ACT) —To produce a measurable cooling sensation, 10-15 μL of acetone was applied onto the medial area of the plantar hind paw with a 0.5 ml insulin syringe. Responses of a mouse to acetone were monitored for 20 s, and a score given based on a four-point scale (0-3 points), according to the response intensity, continuation, and briskness. The higher the score, the greater the cool allodynia sensed by the mouse.
Within one test timepoint, a total of 3 trials were performed per paw with a minimum gap of 5 min between testing. The three individual scores were added up to obtain a single score over a cumulative period of 60 s. Thus, for one test, the minimum score of one paw is 0 (no cool allodynia), while the maximum possible score is 9 (intensive cool allodynia). The total scores for the left and right paws were averaged to accomplish a single result value per mouse at each timepoint.
The Acetone Cooling Test was performed prior to OXP administration (Baseline), following the last OXP injection (D21), one day after the first CBC, Duloxetine, or Vehicle treatment (D22), and after a 10-day daily dosing of CBC, Duloxetine, or Vehicle treatment (D31). Taken together, the ACT was used to assess chemotherapy-induce cool allodynia as stated in the schedule:
On D22: At 60 min after the first Vehicle/CBC dose and 120 min after Dulx dose.
On D31: At 60 min after the last Vehicle/CBC and 120 min after Dulx dose.

[2] = Welfare observations in OIPN study; conditions: Duloxetine 25 mg/kg i.p., OIPN mice
Text: Seven mice were disqualified from further study due to showing too mild cool allodynia.

[3] = Body weight in OIPN study; conditions: OIPN mice; CBC 20 mg/kg p.o., Duloxetine 25 mg/kg i.p.
Experimental: Body Weight—Animal body weights were measured before assigning the treatment groups and then on each day of the study. The last body weight measurement was performed upon endpoint sampling. Terminal body weights were not collected from animals found dead or euthanized moribund.

Structure (SMILES): CNCC[C@H](Oc1cccc2ccccc12)c1cccs1 [Duloxetine, reference compound]
- ACT score compared with OXP-Vehicle control ([1]; D22, acute single dose): statistically significant and comparable reduction in cool allodynia
- ACT score compared with OXP-Vehicle control ([1]; D31, chronic repeated dosing): maintained a significant reduction in cool allodynia
- ACT score, D31 vs. D21 ([1]; within group, 10-day repeated dosing): significant reduction of cool allodynia
- ACT score, reversion of cool allodynia D22 vs. D21 pre-treatment: p ([1]; within group, single dose): < 0.01
- share of the group with adverse effects (enlarged staring eyes and clearly decreased activity) [2]: 30%
- body weight development from D22 onwards [3]: slower increase in body weight
